This is an account of results in BindingDB's records for doi:10.1021/acsmedchemlett.9b00354 (Bristol-Myers Squibb, 2019).

The EC50 is the concentration needed to bring the measured effect to its halfway point. Read a low EC50 as higher potency in that assay.

Each structure is given as a SMILES string.

A short description of this assay: Effect on ZAP70 phosphorylation in human Jurkat cells pre-incubated for 30 mins followed by anti-CD3/CD28 stimulation measured after 10 mins.

Compound `CC(C)(C)NC(=O)N1CCC(n2nc(C(=O)Nc3ccc(-c4ccc(=O)[nH]n4)c(Cl)c3)c3ccccc32)CC1` showed an EC50 of 5700 nM.

Compound `Cc1cc(NC(=O)c2nn(C3CCN(C(=O)NC(C)(C)C)CC3)c3ccccc23)ccc1NC(=O)c1cnn2ccccc12` registered an EC50 of 42 nM.

`CCc1cc(NC(=O)c2nn(C3CCN(C(=O)NC(C)(C)C)CC3)c3ccccc23)ccc1-c1cc(C)c(=O)[nH]n1` returned an EC50 of 2700 nM.

`COc1ccc2c(C(=O)Nc3ccc(NC(=O)c4nn(C5CCN(C(=O)CC(C)(C)C#N)CC5)c5ccc(F)cc45)cc3Cl)cnn2c1` yielded an EC50 of 41 nM.

`Cc1cc(NC(=O)c2nn(C3CCN(C(=O)CC(C)(C)C#N)CC3)c3ccccc23)ccc1NC(=O)c1cnn2ccccc12`: it took 88 nM to reach a half-maximal effect (EC50).

`CC(C)(C)NC(=O)N1CC(Cn2nc(C(=O)Nc3ccc(-c4ccc(=O)[nH]n4)c(Cl)c3)c3ccccc32)C1` yielded an EC50 of 7900 nM.

`CCc1cc(NC(=O)c2nn(C3CCN(C(=O)NC(C)(C)C)CC3)c3ccccc23)ccc1-c1n[nH]c(=O)c(C)c1C`: the EC50 was 420 nM.

In the case of `CC(C)(C)NC(=O)N1CCC(n2nc(C(=O)Nc3ccc(NC(=O)c4cnn5ccccc45)cc3)c3ccccc32)CC1`, the concentration for a half-maximal effect (EC50) was found to be 1400 nM.

`Cc1cc(=O)[nH]nc1-c1ccc(NC(=O)c2nn(C3CCN(C(=O)NC(C)(C)C)CC3)c3ccccc23)cc1Cl` showed an EC50 of 4050 nM.

`CCc1cc(NC(=O)c2nn(C3CCN(C(=O)NC(C)(C)C)CC3)c3ccccc23)ccc1-c1n[nH]c(=O)cc1C`: a half-maximal response (EC50) required 2000 nM.

`COc1ccc2c(C(=O)Nc3ccc(NC(=O)c4nn(C5CCN(C(=O)NC(C)(C)C)CC5)c5ccc(F)cc45)cc3Cl)cnn2c1` displayed an EC50 of 56 nM.

With `CC(C)(C)NC(=O)N1CCC(n2nc(C(=O)Nc3ccc(NC(=O)c4cnn5ccccc45)c(Cl)c3)c3ccccc32)CC1`, a half-maximal effect (EC50) was put at 49 nM.

With `COc1ccc2c(C(=O)Nc3ccc(NC(=O)c4nn(C)c5ccccc45)cc3C)cnn2c1`, the EC50 is above 20000 nM.

Regarding `COc1ccc2c(C(=O)Nc3ccc(NC(=O)c4nn(C5CCN(C(=O)NC(C)(C)C)CC5)c5ccccc45)cc3C)cnn2c1`, it took 28 nM to reach a half-maximal effect (EC50).
